Experiment: Anticancer human tumor 997537-175-T-J1-PDC patient-derived colon adenocarcinoma cell line growth inhibition [POLQ]
Details: 997537-175-T-J1-PDC complex spheroid viability, combination with POLQ inhibitors; second compound 0.316 µM; first compound 1 µM; active compounds read low
Summary of the method: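 PDC + HUVEC + MSC complex spheroids; POLQ inhibitors ± partner drugs; top conc. at/near clinical Cmax, else 10 microM (SN-38 1 microM), half-log dilutions; 37 degrees C, 5% CO2.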
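Also: luminescence signal used as a surrogate for viable cells; spheroids exposed to drugs for seven days before readout.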

SMILES | viability, T/C [%]
COc1cc2cc(C(=O)CCC(=O)O)sc2cc1OC + COC1C(OC(N)=O)C(O)C(Oc2ccc3c(O)c(NC(=O)c4ccc(O)c(CC=C(C)C)c4)c(=O)oc3c2C)OC1(C)C | 96.2
O=C(Nc1ccc(O)c(NS(=O)(=O)c2ccc(F)cc2)c1)c1ccc(-c2ccccc2)cc1 + Nc1ccc(C#CCN(C(=O)Cc2ncc(C(F)(F)F)cc2C(F)(F)F)c2ccc(F)cc2)nn1 | 101
CC1COCCN1c1cc(-c2ccnn2C)c2ccnc(-c3ccn[nH]3)c2n1 (stereo unspecified) + Nc1ccc(C#CCN(C(=O)Cc2ncc(C(F)(F)F)cc2C(F)(F)F)c2ccc(F)cc2)nn1 | 42.5
CC1COCCN1c1cc(C2(O)CC3CCC(C2)O3)c2cnn(-c3ccn[nH]3)c2n1 (stereo unspecified) + Cc1cccc(N(C)C(=O)C2C(O)CCN2c2nc(C)cc(C(F)(F)F)c2C#N)c1 | 45.9
CC1COCCN1c1cc(C2(O)CC3CCC(C2)O3)c2cnn(-c3ccn[nH]3)c2n1 (stereo unspecified) + COC1C(OC(N)=O)C(O)C(Oc2ccc3c(O)c(NC(=O)c4ccc(O)c(CC=C(C)C)c4)c(=O)oc3c2C)OC1(C)C | 51.1

Same assay, conditions: 997537-175-T-J1-PDC complex spheroid viability, combination with POLQ inhibitors; second compound 0.316 µM; first compound 3.16 µM; active compounds read low

SMILES | viability, T/C [%]
COc1cc2cc(C(=O)CCC(=O)O)sc2cc1OC + COC1C(OC(N)=O)C(O)C(Oc2ccc3c(O)c(NC(=O)c4ccc(O)c(CC=C(C)C)c4)c(=O)oc3c2C)OC1(C)C | 86.2
O=C(Nc1ccc(O)c(NS(=O)(=O)c2ccc(F)cc2)c1)c1ccc(-c2ccccc2)cc1 + Nc1ccc(C#CCN(C(=O)Cc2ncc(C(F)(F)F)cc2C(F)(F)F)c2ccc(F)cc2)nn1 | 107
CC1COCCN1c1cc(-c2ccnn2C)c2ccnc(-c3ccn[nH]3)c2n1 (stereo unspecified) + Nc1ccc(C#CCN(C(=O)Cc2ncc(C(F)(F)F)cc2C(F)(F)F)c2ccc(F)cc2)nn1 | 52
CC1COCCN1c1cc(C2(O)CC3CCC(C2)O3)c2cnn(-c3ccn[nH]3)c2n1 (stereo unspecified) + Cc1cccc(N(C)C(=O)C2C(O)CCN2c2nc(C)cc(C(F)(F)F)c2C#N)c1 | 53.8
CC1COCCN1c1cc(C2(O)CC3CCC(C2)O3)c2cnn(-c3ccn[nH]3)c2n1 (stereo unspecified) + COC1C(OC(N)=O)C(O)C(Oc2ccc3c(O)c(NC(=O)c4ccc(O)c(CC=C(C)C)c4)c(=O)oc3c2C)OC1(C)C | 51.4

Same assay, conditions: 997537-175-T-J1-PDC complex spheroid viability, combination with POLQ inhibitors; second compound 0.316 µM; first compound 10 µM; active compounds read low

SMILES | viability, T/C [%]
COc1cc2cc(C(=O)CCC(=O)O)sc2cc1OC + COC1C(OC(N)=O)C(O)C(Oc2ccc3c(O)c(NC(=O)c4ccc(O)c(CC=C(C)C)c4)c(=O)oc3c2C)OC1(C)C | 91.8
O=C(Nc1ccc(O)c(NS(=O)(=O)c2ccc(F)cc2)c1)c1ccc(-c2ccccc2)cc1 + Nc1ccc(C#CCN(C(=O)Cc2ncc(C(F)(F)F)cc2C(F)(F)F)c2ccc(F)cc2)nn1 | 84.6
CC1COCCN1c1cc(-c2ccnn2C)c2ccnc(-c3ccn[nH]3)c2n1 (stereo unspecified) + Nc1ccc(C#CCN(C(=O)Cc2ncc(C(F)(F)F)cc2C(F)(F)F)c2ccc(F)cc2)nn1 | 65.8
CC1COCCN1c1cc(C2(O)CC3CCC(C2)O3)c2cnn(-c3ccn[nH]3)c2n1 (stereo unspecified) + Cc1cccc(N(C)C(=O)C2C(O)CCN2c2nc(C)cc(C(F)(F)F)c2C#N)c1 | 47.6
CC1COCCN1c1cc(C2(O)CC3CCC(C2)O3)c2cnn(-c3ccn[nH]3)c2n1 (stereo unspecified) + COC1C(OC(N)=O)C(O)C(Oc2ccc3c(O)c(NC(=O)c4ccc(O)c(CC=C(C)C)c4)c(=O)oc3c2C)OC1(C)C | 50.8

Same assay, conditions: 997537-175-T-J1-PDC complex spheroid viability, combination with POLQ inhibitors; second compound 1 µM; first compound 0.0316 µM; active compounds read low

SMILES | viability, T/C [%]
COc1cc2cc(C(=O)CCC(=O)O)sc2cc1OC + COC1C(OC(N)=O)C(O)C(Oc2ccc3c(O)c(NC(=O)c4ccc(O)c(CC=C(C)C)c4)c(=O)oc3c2C)OC1(C)C | 100
O=C(Nc1ccc(O)c(NS(=O)(=O)c2ccc(F)cc2)c1)c1ccc(-c2ccccc2)cc1 + Nc1ccc(C#CCN(C(=O)Cc2ncc(C(F)(F)F)cc2C(F)(F)F)c2ccc(F)cc2)nn1 | 105
CC1COCCN1c1cc(-c2ccnn2C)c2ccnc(-c3ccn[nH]3)c2n1 (stereo unspecified) + Nc1ccc(C#CCN(C(=O)Cc2ncc(C(F)(F)F)cc2C(F)(F)F)c2ccc(F)cc2)nn1 | 93.1
CC1COCCN1c1cc(C2(O)CC3CCC(C2)O3)c2cnn(-c3ccn[nH]3)c2n1 (stereo unspecified) + Cc1cccc(N(C)C(=O)C2C(O)CCN2c2nc(C)cc(C(F)(F)F)c2C#N)c1 | 86.8
CC1COCCN1c1cc(C2(O)CC3CCC(C2)O3)c2cnn(-c3ccn[nH]3)c2n1 (stereo unspecified) + COC1C(OC(N)=O)C(O)C(Oc2ccc3c(O)c(NC(=O)c4ccc(O)c(CC=C(C)C)c4)c(=O)oc3c2C)OC1(C)C | 82.9

Same assay, conditions: 997537-175-T-J1-PDC complex spheroid viability, combination with POLQ inhibitors; second compound 1 µM; first compound 0.1 µM; active compounds read low

SMILES | viability, T/C [%]
COc1cc2cc(C(=O)CCC(=O)O)sc2cc1OC + COC1C(OC(N)=O)C(O)C(Oc2ccc3c(O)c(NC(=O)c4ccc(O)c(CC=C(C)C)c4)c(=O)oc3c2C)OC1(C)C | 98.4
O=C(Nc1ccc(O)c(NS(=O)(=O)c2ccc(F)cc2)c1)c1ccc(-c2ccccc2)cc1 + Nc1ccc(C#CCN(C(=O)Cc2ncc(C(F)(F)F)cc2C(F)(F)F)c2ccc(F)cc2)nn1 | 105
CC1COCCN1c1cc(-c2ccnn2C)c2ccnc(-c3ccn[nH]3)c2n1 (stereo unspecified) + Nc1ccc(C#CCN(C(=O)Cc2ncc(C(F)(F)F)cc2C(F)(F)F)c2ccc(F)cc2)nn1 | 76.1
CC1COCCN1c1cc(C2(O)CC3CCC(C2)O3)c2cnn(-c3ccn[nH]3)c2n1 (stereo unspecified) + Cc1cccc(N(C)C(=O)C2C(O)CCN2c2nc(C)cc(C(F)(F)F)c2C#N)c1 | 81.9
CC1COCCN1c1cc(C2(O)CC3CCC(C2)O3)c2cnn(-c3ccn[nH]3)c2n1 (stereo unspecified) + COC1C(OC(N)=O)C(O)C(Oc2ccc3c(O)c(NC(=O)c4ccc(O)c(CC=C(C)C)c4)c(=O)oc3c2C)OC1(C)C | 68

Same assay, conditions: 997537-175-T-J1-PDC complex spheroid viability, combination with POLQ inhibitors; second compound 1 µM; first compound 0.316 µM; active compounds read low

SMILES | viability, T/C [%]
COc1cc2cc(C(=O)CCC(=O)O)sc2cc1OC + COC1C(OC(N)=O)C(O)C(Oc2ccc3c(O)c(NC(=O)c4ccc(O)c(CC=C(C)C)c4)c(=O)oc3c2C)OC1(C)C | 104

— PubChem BioAssay AID1963825 (Molecular Pharmacology Branch, DTP, NCI, 2024)
